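Tested at 5 concentrations; 48 h exposure; 96-well plates; endpoints linearly interpolated, else capped at highest concentration. The concentration for 50% growth inhibition is given as GI50.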 Calls of active or inactive are those of the source. Cut-off read from the data, not from the text of the source: active = GI50 up to about 1.1 µM and inactive = higher.
Legend:
Test in all cases: NCI-60 cell line screen, 48 h
[1] = test system: 786-0
[2] = test system: A498
[3] = test system: A549
[4] = test system: BT-549
[5] = test system: CAKI-1
[6] = test system: CCRF-CEM
[7] = test system: COLO 205
[8] = test system: DU-145
[9] = test system: EKVX
[10] = test system: HCT-116
[11] = test system: HCT-15
[12] = test system: HL-60
[13] = test system: HOP-62
[14] = test system: HOP-92
[15] = test system: HT-29
[16] = test system: Hs-578T
[17] = test system: IGROV-1
[18] = test system: K562
[19] = test system: KM12
[20] = test system: LOX IMVI
[21] = test system: M14
[22] = test system: MCF7
[23] = test system: MDA-MB-231
[24] = test system: MDA-MB-435
[25] = test system: MDA-N
[26] = test system: MOLT-4
[27] = test system: Malme-3M
[28] = test system: NCI-H226
[29] = test system: NCI-H23
[30] = test system: NCI-H522
[31] = test system: NCI/ADR-RES
[32] = test system: OVCAR-3
[33] = test system: OVCAR-4
[34] = test system: OVCAR-5
[35] = test system: OVCAR-8
[36] = test system: PC-3
[37] = test system: RPMI-8226
[38] = test system: SF-268
[39] = test system: SF-295
[40] = test system: SF-539
[41] = test system: SK-MEL-28
[42] = test system: SK-MEL-2
[43] = test system: SK-MEL-5
[44] = test system: SK-OV-3
[45] = test system: SN12C
[46] = test system: SNB-75
[47] = test system: SR
[48] = test system: SW-620
[49] = test system: T47D
[50] = test system: TK-10
[51] = test system: U-251
[52] = test system: UACC-257
[53] = test system: UACC-62
[54] = test system: UO-31
[55] = test system: ACHN
[56] = test system: HCC 2998
[57] = test system: NCI-H460
[58] = test system: RXF 393
[59] = test system: SNB-19

Q: Which GI50 [1] does the source give for C#CCn1c2c(c3ccccc3c1=O)C(=O)c1ccccc1-2 here?
A: 14 µM (inactive)

Q: And the GI50 [2]?
A: 22.7 µM (inactive)

Q: What about the GI50 [3] of the same compound?
A: 13.6 µM (inactive)

Q: And the GI50 [4]?
A: 22.1 µM (inactive)

Q: And the GI50 [5]?
A: 12 µM (inactive)

Q: What about the GI50 [6] of the same compound?
A: > 100 µM (inactive)

Q: What about the GI50 [7] of the same compound?
A: 22.4 µM (inactive)

Q: What about the GI50 [8] of the same compound?
A: 11.7 µM (inactive)

Q: And the GI50 [9]?
A: 16.3 µM (inactive)

Q: What about the GI50 [10] of the same compound?
A: 19.6 µM (inactive)

Q: What about the GI50 [11] of the same compound?
A: 22.2 µM

Q: And the GI50 [12]?
A: 2.94 µM (inactive)

Q: And the GI50 [13]?
A: 11.9 µM (inactive)

Q: And the GI50 [14]?
A: 29.9 µM (inactive)

Q: And the GI50 [15]?
A: 10.7 µM (inactive)

Q: And the GI50 [16]?
A: 15.8 µM (inactive)

Q: What about the GI50 [17] of the same compound?
A: 15.7 µM (inactive)

Q: And the GI50 [18]?
A: 19 µM (inactive)

Q: What about the GI50 [19] of the same compound?
A: 10.1 µM (inactive)

Q: What about the GI50 [20] of the same compound?
A: 18.2 µM (inactive)

Q: What about the GI50 [21] of the same compound?
A: 42.8 µM (inactive)

Q: And the GI50 [22]?
A: 9.06 µM (inactive)

Q: And the GI50 [23]?
A: 15.2 µM (inactive)

Q: What about the GI50 [24] of the same compound?
A: 67.3 µM (inactive)

Q: What about the GI50 [25] of the same compound?
A: 37.7 µM (inactive)

Q: And the GI50 [26]?
A: 2.83 µM (inactive)

Q: What about the GI50 [27] of the same compound?
A: 25.5 µM (inactive)

Q: And the GI50 [28]?
A: 16.7 µM (inactive)

Q: What about the GI50 [29] of the same compound?
A: 11.4 µM (inactive)

Q: What about the GI50 [30] of the same compound?
A: 10.7 µM (inactive)

Q: And the GI50 [31]?
A: 21.5 µM (inactive)

Q: What about the GI50 [32] of the same compound?
A: 14.7 µM (inactive)

Q: What about the GI50 [33] of the same compound?
A: 11.4 µM (inactive)

Q: What about the GI50 [34] of the same compound?
A: 24.7 µM (inactive)

Q: What about the GI50 [35] of the same compound?
A: 19.6 µM (inactive)

Q: What about the GI50 [36] of the same compound?
A: 11.7 µM (inactive)

Q: What about the GI50 [37] of the same compound?
A: 13 µM (inactive)

Q: And the GI50 [38]?
A: 14 µM (inactive)

Q: And the GI50 [39]?
A: 20.2 µM (inactive)

Q: And the GI50 [40]?
A: 11.6 µM (inactive)

Q: And the GI50 [41]?
A: 26.6 µM (inactive)

Q: What about the GI50 [42] of the same compound?
A: 29.9 µM (inactive)

Q: And the GI50 [43]?
A: 2.37 µM (inactive)

Q: What about the GI50 [44] of the same compound?
A: 27.4 µM (inactive)

Q: And the GI50 [45]?
A: 11.4 µM (inactive)

Q: What about the GI50 [46] of the same compound?
A: 13.4 µM (inactive)

Q: And the GI50 [47]?
A: 4.49 µM (inactive)

Q: And the GI50 [48]?
A: 23.9 µM (inactive)

Q: What about the GI50 [49] of the same compound?
A: 15.8 µM (inactive)

Q: And the GI50 [50]?
A: 19.5 µM (inactive)

Q: What about the GI50 [51] of the same compound?
A: 15.2 µM (inactive)

Q: And the GI50 [52]?
A: 32.3 µM (inactive)

Q: What about the GI50 [53] of the same compound?
A: 21.4 µM (inactive)

Q: What about the GI50 [54] of the same compound?
A: 2 µM (inactive)

Q: Which results are given for O=C(/C=C/c1csc(-c2ccccc2)n1)NCc1ccc(C(=O)NCCc2ccccc2)cc1?
A: GI50 [1]: 8.63 µM (inactive); GI50 [2]: 19.8 µM (inactive); GI50 [3]: 26.7 µM (inactive); GI50 [55]: 19.3 µM (inactive); GI50 [4]: 22.3 µM (inactive); GI50 [5]: 15.6 µM (inactive); GI50 [6]: > 100 µM (inactive); GI50 [7]: 42.1 µM (inactive); GI50 [8]: 88.5 µM (inactive); GI50 [9]: 93.5 µM (inactive); GI50 [56]: > 100 µM (inactive); GI50 [10]: 26.9 µM (inactive); GI50 [11]: 93.5 µM; GI50 [13]: 2.64 µM (inactive); GI50 [14]: 6.85 µM (inactive); GI50 [15]: 5.09 µM (inactive); GI50 [16]: 7.05 µM (inactive); GI50 [17]: 36.6 µM (inactive); GI50 [18]: > 100 µM (inactive); GI50 [19]: 61.1 µM (inactive); GI50 [20]: 79.4 µM (inactive); GI50 [21]: 39.8 µM (inactive); GI50 [22]: 72.3 µM (inactive); GI50 [23]: 5.38 µM (inactive); GI50 [24]: > 100 µM (inactive); GI50 [25]: > 100 µM (inactive); GI50 [26]: > 100 µM (inactive); GI50 [27]: 24.3 µM (inactive); GI50 [28]: 25.5 µM (inactive); GI50 [29]: 29.7 µM (inactive); GI50 [57]: 55.3 µM (inactive); GI50 [30]: 34.6 µM (inactive); GI50 [31]: 11.6 µM (inactive); GI50 [32]: 63.8 µM (inactive); GI50 [33]: 24.5 µM (inactive); GI50 [34]: 73.3 µM (inactive); GI50 [35]: 4.23 µM (inactive); GI50 [36]: 49.4 µM (inactive); GI50 [37]: > 100 µM (inactive); GI50 [58]: 2.7 µM (inactive); GI50 [38]: 5.94 µM (inactive); GI50 [39]: 9.73 µM (inactive); GI50 [41]: 24 µM (inactive); GI50 [42]: 32 µM (inactive); GI50 [43]: 69.5 µM (inactive); GI50 [44]: 12.3 µM (inactive); GI50 [45]: 44.9 µM (inactive); GI50 [59]: 11.4 µM (inactive); GI50 [46]: 2.6 µM (inactive); GI50 [47]: > 100 µM (inactive); GI50 [48]: 74.5 µM (inactive); GI50 [49]: 41.2 µM (inactive); GI50 [50]: 11.7 µM (inactive); GI50 [51]: 5.16 µM (inactive); GI50 [52]: 27.2 µM (inactive); GI50 [53]: 31.8 µM (inactive); GI50 [54]: 48.1 µM (inactive)
